Reference: patent US20210130339A1, “COMPOUNDS” (GLAXOSMITHKLINE INTELLECTUAL PROPERTY DEVELOPMENT LIMITED, priority 2017, published 2021)
Values joined by “and” are separate entries in the source; they are usually repeats but may differ in a detail not shown here. Equal entries are not always repeated.

Key:
[1] = target: T1, recombinant full length LRRK2 (Homo sapiens, UniProt Q5S007); assay: Recombinant cellular LRRK2 AlphaScreen assay; assay type: cell-based; settings: LRRK2 Ser935 phosphorylation, SH-SY5Y cells over-expressing recombinant full length LRRK2; read-out: pIC50 in the recombinant cellular LRRK2 AlphaScreen assay (converted)
T1 construct: A BacMam virus expressing full length recombinant LRRK2 was purchased from Invitrogen; host or cells: SH-SY5Y human neuroblastoma cells transduced with BacMam LRRK2 virus (MOI 50)
Method in brief: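 SH-SY5Y neuroblastoma cells transduced with BacMam full-length human LRRK2 (MOI 50, 24 h) were treated with compounds for 60 min at 37 °C, top final 10 µM. Lysates probed by AlphaScreen for pSer935 versus total LRRK2; sigmoidal dose-response fit.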

[2] = target: T2, Full length G2019 human LRRK2 (Homo sapiens, UniProt Q5S007); assay: Full length G2019 human LRRK2 Inhibition Mass Spectrometry assay; assay type: biochemical; settings: LRRKtide substrate, RapidFire mass spectrometry; read-out: pIC50 in the Full length G2019 human LRRK2 Inhibition Mass Spectrometry assay (converted)
T2 construct: purified recombinant Full length Flag-LRRK2 in assay buffer; made in house; host or cells: HEK293 6E cells transduced with BacMam virus (virus generated in Sf9 cells)
Procedure: a. Full Length G2019 Human LRRK2 Inhibition Mass Spectrometry Assay
This assay for Leucine Rich Repeat Kinase 2 (LRRK2) inhibition is based on the direct measurement of the peptide ‘LRRKtide’ (LRRKtide: RLGRDKYKT*LRQIRQ and “*” refers to the site of phosphorylation.) and phosphorylated ‘LRRKtide’ using a high throughput RapidFire mass spectrometry assay. Inhibitors are compounds that reduce the conversion of LRRKtide to phospho-LRRKtide.
HEK293 6E cells were incubated in a 37° C. incubator with a humidified atmosphere of 5% CO2 on an orbital shaker rotating at 110 rpm. On the day of transduction, the cell viability was higher than 98% and the cell density was in the range of 1×10^6˜1.5×10^6 cells/ml. HEK293 6E cells were centrifuged at 1,000 rpm for 10 min, and then the cells were resuspended in fresh Freestyle 293 expression medium (Invitrogen:12338) with 0.1% F-68 (Invitrogen:24040-032) but without antibiotics (G418) at density of 1×10^6 cells/ml. BacMam virus with Flag-hu LRRK2 (genotypically normal) gene was centrifuged at 40,000 g for 2 hours, then resuspended in fresh Freestyle 293 expression medium. The resuspended virus was added into the cells in at MOI of 10. The cells were incubated in a 37° C. incubator with a humidified atmosphere of 5% CO2 in air on an orbital shaker rotating at 110 rpm. Cultures were harvested at approximately 48 hours post-transduction by centrifugation at 4,000 rpm for 20 min and pellets were frozen for purification.
The suspended cells were lysed by sonication on ice for 30 min (2 secs on/4 sec off, 20% amplitude), and centrifuged at 10,000 rpm for 30 minutes at 4° C. The supernatant was incubated with 1 mL per litre of cell culture of anti-Flag magnetic beads (Sigma-Aldrich: M8823) at 4° C. for 3 hours, then the beads were washed by 5 mL (5 column volume) binding buffer (50 mM Tris pH7.5@ 4C, 500 mM NaCl, 0.5 mM EDTA, 0.1% TritonX-100, 10% glycerol, freshly add 2 mM DTT) for three times. The Flag tagged LRRK2 proteins were eluted by Elution buffer (50 mM Tris pH7.5@ 4C, 500 mM NaCl, 0.5 mM EDTA, 0.1% TritonX-100, 10% glycerol, freshly add 2 mM DTT, 250 ug/ml Flag peptide (Sigma-Aldrich:F3290)) at 4° C. for 2 hours. Flag peptide was removed by Zeba Spin Desalting Columns, 7K MWCO (Thermo-Fisher: 89893) and the buffer of eluted LRRK2 proteins was exchanged into Storage Buffer (50 mM Tris pH7.5@4C, 150 mM NaCl, 0.5 mM EDTA, 0.02% Triton X-100, 2 mM DTT and 50% Glycerol) using Amicon Ultra Centrifugal Filter Units (100 kD) (Merck: UFC910096). Fractions containing LRRK2 proteins were pooled, aliquoted and stored at −80° C. Protein concentration was determined by Bradford protein assay, and protein purity was analyzed by NuPAG Novex 4-12% Bis-Tris Protein Gels (Invitrogen: NP0322BOX).
• 1) A 10 mM test compound was dissolved in 100% DMSO and serially diluted 1 in 4. 100 nL of this dilution series was then added to a 384 well, v bottom polypropylene plate, excluding columns 6 and 18. 100 nL of DMSO was added to columns 6 and 18 as controls wells. Assay dilution gave a top final assay concentration of test compound of 100 μM • 2) 50 μl of 1% formic acid in laboratory grade water was added to column 18 using a multidrop combi dispenser to act as a pre stopped assay control. • 3) 5 μl of ‘enzyme solution’ containing 50 nM of purified recombinant Full length Flag-LRRK2 in assay buffer (50 mM Hepes (pH 7.2), 10 mM MgCl2, 150 mM NaCl, 5% glycerol, 0.0025% triton X-100 and 1 mM DTT) was added to all wells using a multidrop combi dispenser, giving a final assay concentration of 25 nM LRRK2 enzyme. […] Test plates were then incubated for 30 minutes at room temperature. • 4) 5 μl ‘substrate solution’ containing 50 uM LRRKtide peptide substrate and 4 mM ATP was added to all wells of the plate using a multidrop combi dispenser giving a final assay concentration of 25 uM LRRKtide and 2 mM ATP. Test plates were then incubated for 1 hour at room temperature. […]

T2 sequence (Q5S007 with tags, fused parts or gaps R50H): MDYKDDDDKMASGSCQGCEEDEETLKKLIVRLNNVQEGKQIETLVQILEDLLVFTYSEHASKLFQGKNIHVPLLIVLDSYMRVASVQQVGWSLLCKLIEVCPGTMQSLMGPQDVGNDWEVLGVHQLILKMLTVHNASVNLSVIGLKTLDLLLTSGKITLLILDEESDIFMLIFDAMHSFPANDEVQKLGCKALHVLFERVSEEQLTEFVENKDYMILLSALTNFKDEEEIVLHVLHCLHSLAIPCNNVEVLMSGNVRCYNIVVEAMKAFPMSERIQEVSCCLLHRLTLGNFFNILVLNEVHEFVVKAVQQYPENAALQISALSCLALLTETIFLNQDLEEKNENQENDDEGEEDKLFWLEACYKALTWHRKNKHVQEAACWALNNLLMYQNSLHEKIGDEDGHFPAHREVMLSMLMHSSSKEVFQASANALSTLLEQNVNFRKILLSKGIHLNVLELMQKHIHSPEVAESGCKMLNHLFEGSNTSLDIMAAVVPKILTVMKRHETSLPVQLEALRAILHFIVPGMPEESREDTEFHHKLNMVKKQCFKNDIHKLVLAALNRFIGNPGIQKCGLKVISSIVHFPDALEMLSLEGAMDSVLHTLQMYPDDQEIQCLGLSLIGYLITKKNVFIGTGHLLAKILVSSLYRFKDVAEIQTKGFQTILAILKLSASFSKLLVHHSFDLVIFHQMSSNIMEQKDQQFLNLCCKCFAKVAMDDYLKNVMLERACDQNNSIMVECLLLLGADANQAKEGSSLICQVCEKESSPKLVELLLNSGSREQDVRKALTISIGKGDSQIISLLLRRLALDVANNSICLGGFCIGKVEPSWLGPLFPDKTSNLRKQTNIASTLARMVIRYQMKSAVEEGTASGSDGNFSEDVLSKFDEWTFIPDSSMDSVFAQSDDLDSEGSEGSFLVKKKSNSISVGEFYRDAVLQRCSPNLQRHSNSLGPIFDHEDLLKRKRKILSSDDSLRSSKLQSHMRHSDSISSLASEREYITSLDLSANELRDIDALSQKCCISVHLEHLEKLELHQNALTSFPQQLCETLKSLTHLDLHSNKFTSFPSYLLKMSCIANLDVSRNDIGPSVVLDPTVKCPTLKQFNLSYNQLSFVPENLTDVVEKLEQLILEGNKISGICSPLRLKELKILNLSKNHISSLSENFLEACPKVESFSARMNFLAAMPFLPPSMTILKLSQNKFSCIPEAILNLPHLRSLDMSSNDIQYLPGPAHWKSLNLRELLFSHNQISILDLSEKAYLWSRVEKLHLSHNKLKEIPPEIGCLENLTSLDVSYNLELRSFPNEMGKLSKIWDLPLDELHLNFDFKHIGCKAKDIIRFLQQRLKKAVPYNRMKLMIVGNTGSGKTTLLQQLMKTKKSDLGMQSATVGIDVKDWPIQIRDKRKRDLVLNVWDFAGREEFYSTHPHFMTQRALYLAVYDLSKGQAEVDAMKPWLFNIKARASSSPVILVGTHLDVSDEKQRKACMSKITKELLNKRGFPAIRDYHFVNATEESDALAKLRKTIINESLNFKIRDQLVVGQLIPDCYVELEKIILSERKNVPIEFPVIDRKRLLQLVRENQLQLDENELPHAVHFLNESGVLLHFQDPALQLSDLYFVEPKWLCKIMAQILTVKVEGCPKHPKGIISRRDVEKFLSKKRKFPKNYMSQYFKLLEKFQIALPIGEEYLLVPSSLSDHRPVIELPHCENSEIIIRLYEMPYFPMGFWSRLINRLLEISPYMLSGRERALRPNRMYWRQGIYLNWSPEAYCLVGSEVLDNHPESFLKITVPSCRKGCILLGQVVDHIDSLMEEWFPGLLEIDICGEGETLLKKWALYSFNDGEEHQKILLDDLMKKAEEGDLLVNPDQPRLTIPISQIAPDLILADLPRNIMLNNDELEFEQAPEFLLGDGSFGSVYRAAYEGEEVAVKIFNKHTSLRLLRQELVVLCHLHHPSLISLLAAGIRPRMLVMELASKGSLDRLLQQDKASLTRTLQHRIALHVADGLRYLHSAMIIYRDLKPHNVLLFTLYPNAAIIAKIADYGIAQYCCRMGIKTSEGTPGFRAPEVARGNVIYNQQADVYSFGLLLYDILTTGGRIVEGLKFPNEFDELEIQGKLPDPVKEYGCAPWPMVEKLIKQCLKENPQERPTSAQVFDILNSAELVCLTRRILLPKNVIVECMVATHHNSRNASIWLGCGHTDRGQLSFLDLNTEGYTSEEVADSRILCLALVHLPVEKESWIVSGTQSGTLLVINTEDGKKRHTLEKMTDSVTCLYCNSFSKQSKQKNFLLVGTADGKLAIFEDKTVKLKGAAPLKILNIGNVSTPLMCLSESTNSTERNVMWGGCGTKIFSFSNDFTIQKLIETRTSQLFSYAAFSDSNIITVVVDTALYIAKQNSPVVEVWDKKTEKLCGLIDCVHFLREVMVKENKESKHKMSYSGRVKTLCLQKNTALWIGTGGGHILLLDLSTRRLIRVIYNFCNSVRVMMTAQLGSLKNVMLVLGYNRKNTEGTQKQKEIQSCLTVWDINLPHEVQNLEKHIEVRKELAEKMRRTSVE
T1 sequence (Q5S007 whole entry): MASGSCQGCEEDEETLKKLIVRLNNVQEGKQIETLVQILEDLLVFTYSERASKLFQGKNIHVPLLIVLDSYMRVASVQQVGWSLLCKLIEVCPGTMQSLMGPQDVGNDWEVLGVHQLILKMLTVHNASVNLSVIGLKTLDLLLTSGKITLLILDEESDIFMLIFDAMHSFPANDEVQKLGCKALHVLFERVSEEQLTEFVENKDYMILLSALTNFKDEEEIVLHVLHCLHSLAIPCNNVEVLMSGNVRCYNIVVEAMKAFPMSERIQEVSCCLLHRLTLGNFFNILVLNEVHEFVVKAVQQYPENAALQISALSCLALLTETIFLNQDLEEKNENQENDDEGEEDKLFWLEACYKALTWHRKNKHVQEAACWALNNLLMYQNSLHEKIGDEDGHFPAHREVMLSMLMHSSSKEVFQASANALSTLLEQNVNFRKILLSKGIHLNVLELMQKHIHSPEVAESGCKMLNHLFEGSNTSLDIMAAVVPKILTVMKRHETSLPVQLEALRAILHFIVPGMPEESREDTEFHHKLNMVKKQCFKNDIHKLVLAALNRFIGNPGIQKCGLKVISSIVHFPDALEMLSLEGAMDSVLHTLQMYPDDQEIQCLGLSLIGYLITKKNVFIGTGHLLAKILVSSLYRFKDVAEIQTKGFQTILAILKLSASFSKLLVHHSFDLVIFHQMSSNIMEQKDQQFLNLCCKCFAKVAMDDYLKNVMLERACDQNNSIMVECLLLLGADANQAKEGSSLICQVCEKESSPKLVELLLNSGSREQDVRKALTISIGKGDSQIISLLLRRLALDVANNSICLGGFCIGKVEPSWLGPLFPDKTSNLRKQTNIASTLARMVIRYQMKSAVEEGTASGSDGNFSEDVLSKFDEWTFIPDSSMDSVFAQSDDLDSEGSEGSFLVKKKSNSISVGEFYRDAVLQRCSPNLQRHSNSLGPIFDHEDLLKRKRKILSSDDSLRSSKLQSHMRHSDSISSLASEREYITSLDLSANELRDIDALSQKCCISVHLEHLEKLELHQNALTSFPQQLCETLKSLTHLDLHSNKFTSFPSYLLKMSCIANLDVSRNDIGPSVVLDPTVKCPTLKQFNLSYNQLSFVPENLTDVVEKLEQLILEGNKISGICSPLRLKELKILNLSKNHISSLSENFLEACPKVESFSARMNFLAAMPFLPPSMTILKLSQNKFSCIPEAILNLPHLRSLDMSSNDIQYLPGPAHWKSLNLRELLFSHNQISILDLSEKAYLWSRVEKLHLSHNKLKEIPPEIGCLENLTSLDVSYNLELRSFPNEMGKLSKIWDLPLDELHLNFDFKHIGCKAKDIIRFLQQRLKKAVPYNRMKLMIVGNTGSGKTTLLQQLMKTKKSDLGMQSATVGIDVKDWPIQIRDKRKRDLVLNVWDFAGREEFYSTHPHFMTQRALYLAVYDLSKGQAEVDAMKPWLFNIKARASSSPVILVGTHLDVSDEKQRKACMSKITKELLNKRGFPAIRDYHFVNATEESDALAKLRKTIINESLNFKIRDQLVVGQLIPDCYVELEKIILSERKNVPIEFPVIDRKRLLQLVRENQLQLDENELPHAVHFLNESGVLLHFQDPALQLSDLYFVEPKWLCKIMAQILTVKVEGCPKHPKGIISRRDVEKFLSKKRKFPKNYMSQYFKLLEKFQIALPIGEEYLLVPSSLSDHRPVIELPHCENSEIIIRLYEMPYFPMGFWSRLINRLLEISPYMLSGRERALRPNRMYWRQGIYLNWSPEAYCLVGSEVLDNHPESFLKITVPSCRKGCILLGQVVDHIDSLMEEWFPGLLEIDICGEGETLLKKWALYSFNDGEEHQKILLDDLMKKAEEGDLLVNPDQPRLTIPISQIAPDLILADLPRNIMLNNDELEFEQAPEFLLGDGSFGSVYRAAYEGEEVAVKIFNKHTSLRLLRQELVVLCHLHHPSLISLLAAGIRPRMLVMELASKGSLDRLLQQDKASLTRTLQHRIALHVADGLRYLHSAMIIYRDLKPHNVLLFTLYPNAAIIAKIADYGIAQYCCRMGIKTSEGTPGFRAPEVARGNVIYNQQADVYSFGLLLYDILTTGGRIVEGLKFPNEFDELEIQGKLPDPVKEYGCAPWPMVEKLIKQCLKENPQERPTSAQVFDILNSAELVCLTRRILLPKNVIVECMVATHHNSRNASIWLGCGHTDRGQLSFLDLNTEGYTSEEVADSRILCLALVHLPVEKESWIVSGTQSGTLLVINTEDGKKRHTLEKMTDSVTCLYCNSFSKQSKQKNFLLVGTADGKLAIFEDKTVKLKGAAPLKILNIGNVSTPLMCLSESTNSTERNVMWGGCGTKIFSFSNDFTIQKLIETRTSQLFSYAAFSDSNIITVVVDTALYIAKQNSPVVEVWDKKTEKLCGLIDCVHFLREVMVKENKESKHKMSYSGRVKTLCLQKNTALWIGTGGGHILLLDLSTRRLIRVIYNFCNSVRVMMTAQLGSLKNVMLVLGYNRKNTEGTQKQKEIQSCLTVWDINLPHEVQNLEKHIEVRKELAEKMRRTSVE

| IC50 [1] | IC50 [2] | SMILES |
| --- | --- | --- |
| ≤ 1000 nM | ≤ 100 nM | Cc1nc(N2CCOC(C(C)O)C2)cc(-n2ncc3cc(C)c(C4CCN(C5CCOC5)CC4)cc32)n1 (single isomer, unassigned) [Example E141, 1-(4-(2-methyl-6-(5-methyl-6-(1-(tetrahydrofuran-3-yl)piperidin-4-yl)-1H-indazol-1-yl)pyrimidin-4-yl)morpholin-2-yl)ethanol] |
| ≤ 1000 nM | ≤ 1000 nM | Cc1nc(N2CCOC(C(C)O)C2)cc(-n2ncc3cc(C)c(C4CCN(C5CCOC5)CC4)cc32)n1 (single isomer, unassigned) [Example E142, 1-(4-(2-methyl-6-(5-methyl-6-(1-(tetrahydrofuran-3-yl)piperidin-4-yl)-1H-indazol-1-yl)pyrimidin-4-yl)morpholin-2-yl)ethanol] |
| ≤ 1000 nM | ≤ 100 nM | Cc1nc(N2CCO[C@H](CO)C2)cc(-n2ncc3cc(C)c(C4CCN(C5COCC5F)CC4)cc32)n1 (single isomer, unassigned) [Example E149] |
| ≤ 100 nM | ≤ 1000 nM | Cc1nc(N2CCO[C@H](CO)C2)cc(-n2ncc3cc(C)c(C4CCN(C5COCC5F)CC4)cc32)n1 (single isomer, unassigned) [Example E150] |
| ≤ 100 nM | ≤ 100 nM | Cc1nc(N2CCO[C@H](CO)C2)cc(-n2ncc3cc(C)c(C4CCN(C5COCC5O)CC4)cc32)n1 (single isomer, unassigned) [Example E153] |
| ≤ 1000 nM | ≤ 100 nM | Cc1nc(N2CCO[C@H](CO)C2)cc(-n2ncc3cc(C)c(C4CCN(C5COCC5C)CC4)cc32)n1 (stereo partly drawn) [Example E155, ((2S)-4-(2-methyl-6-(5-methyl-6-(1-(4-methyltetrahydrofuran-3-yl)piperidin-4-yl)-1H-indazol-1-yl)pyrimidin-4-yl)morpholin-2-yl)methanol] |
| ≤ 1000 nM | ≤ 100 nM | Cc1nc(N2CCOC(C)(CO)C2)cc(-n2ncc3cc(C)c(C4CCN([C@H]5CCOC5)CC4)cc32)n1 (stereo partly drawn) [Example E156, (2-methyl-4-(2-methyl-6-(5-methyl-6-(1-((S)-tetrahydrofuran-3-yl)piperidin-4-yl)-1H-indazol-1-yl)pyrimidin-4-yl)morpholin-2-yl)methanol] |

More lines, now with the values behind:

| SMILES | IC50 [1] | IC50 [2] |
| --- | --- | --- |
| Cc1nc(N2CCOC(C(C)O)C2)cc(-n2ncc3cc(C)c(C4CCN(C5CCOC5)CC4)cc32)n1 (single isomer, unassigned) [Example E138, 1-(4-(2-methyl-6-(5-methyl-6-(1-(tetrahydrofuran-3-yl)piperidin-4-yl)-1H-indazol-1-yl)pyrimidin-4-yl)morpholin-2-yl)ethanol] | ≤ 100 nM and 63.1 nM | ≤ 100 nM and 25.1 nM |
| Cc1nc(N2CCOC(C(C)O)C2)cc(-n2ncc3cc(C)c(C4CCN(C5CCOC5)CC4)cc32)n1 (single isomer, unassigned) [Example E139, 1-(4-(2-methyl-6-(5-methyl-6-(1-(tetrahydrofuran-3-yl)piperidin-4-yl)-1H-indazol-1-yl)pyrimidin-4-yl)morpholin-2-yl)ethanol] | ≤ 1000 nM | ≤ 1000 nM |
| Cc1nc(N2CCOC(C(C)O)C2)cc(-n2ncc3cc(C)c(C4CCN(C5CCOC5)CC4)cc32)n1 (single isomer, unassigned) [Example E140, 1-(4-(2-methyl-6-(5-methyl-6-(1-(tetrahydrofuran-3-yl)piperidin-4-yl)-1H-indazol-1-yl)pyrimidin-4-yl)morpholin-2-yl)ethanol] | ≤ 1000 nM | ≤ 100 nM |
| [2H]c1nn(-c2cc(N3CCO[C@@H](CO)C3)nc(C)n2)c2cc(C3CCN([C@@H]4CCOC4)CC3)c(C)cc12 [Example E94, ((R)-4-(6-(3-deuterium-5-methyl-6-(1-((R)-tetrahydrofuran-3-yl)piperidin-4-yl)-1H-indazol-1-yl)-2-methylpyrimidin-4-yl)morpholin-2-yl)methanol] | ≤ 1000 nM | ≤ 100 nM |
| [2H]c1nn(-c2cc(N3CCO[C@@H](CO)C3)nc(C)n2)c2cc(C3CCN([C@H]4CCOC4)CC3)c(C)cc12 [Example E95, ((R)-4-(6-(3-deuterium-5-methyl-6-(1-((S)-tetrahydrofuran-3-yl)piperidin-4-yl)-1H-indazol-1-yl)-2-methylpyrimidin-4-yl)morpholin-2-yl)methanol] | ≤ 1000 nM | ≤ 100 nM and 39.8 nM |
